Tests used:
Format in all cases: functional
Conditions in all cases: 96 h, read-out: GI
Corticium [1] = assay: Antimicrobial activity against Corticium sp. assessed as inhibition of mycelial growth on potato dextrose agar at 100 ppm at 27 degC measured after 4 days
Pythium [2] = assay: Antimicrobial activity against Pythium sp. assessed as inhibition of mycelial growth on potato dextrose agar at 100 ppm at 27 degC measured after 4 days
Corticium [3] = assay: Antimicrobial activity against Corticium sp. assessed as inhibition of mycelial growth on potato dextrose agar at 1000 ppm at 27 degC measured after 4 days
Pythium [4] = assay: Antimicrobial activity against Pythium sp. assessed as inhibition of mycelial growth on potato dextrose agar at 1000 ppm at 27 degC measured after 4 days

| Structure (SMILES) | inhibition of growth at 100 ppm (Corticium [1]) [%] | inhibition of growth at 100 ppm (Pythium [2]) [%] | inhibition of growth at 1000 ppm (Corticium [3]) [%] | inhibition of growth at 1000 ppm (Pythium [4]) [%] |
| --- | --- | --- | --- | --- |
| C=CCc1ccc(OP2(=S)N[C@@H](CC(C)C)CO2)c(OC)c1 (some centres undefined) | 0.8 | 9.9 |  |  |
| CC(C)=CCC/C(C)=C/COP1(=S)N[C@@H](Cc2ccccc2)CO1 (some centres undefined) | 28.5 | 4 | 60.4 | 16.9 |
| CC(C)=CCCC(C)CCOP1(=S)N[C@@H](Cc2ccccc2)CO1 (some centres undefined) | 21.1 | 1.6 | 66.8 | 30.8 |
| Cc1ccc(OP2(=S)N[C@@H](Cc3ccccc3)CO2)c(C(C)C)c1 (some centres undefined) | 15.3 | 9.4 | 36 | 58.2 |
| Cc1ccc(C(C)C)c(OP2(=S)N[C@@H](Cc3ccccc3)CO2)c1 (some centres undefined) | 33.8 | 19.8 | 41 | 46 |
| CC(C)=CCC/C(C)=C/COP1(=S)N[C@@H](C)CO1 (some centres undefined) | 22.7 | 20.2 |  |  |
| CC(C)=CCCC(C)CCOP1(=S)N[C@@H](C)CO1 (some centres undefined) | 0 | 0 |  |  |
| Cc1ccc(OP2(=S)N[C@@H](C)CO2)c(C(C)C)c1 (some centres undefined) | 31.7 | 10.8 |  |  |
| Cc1ccc(C(C)C)c(OP2(=S)N[C@@H](C)CO2)c1 (some centres undefined) | 0 | 0 |  |  |
| CC(C)=CCC/C(C)=C/COP1(=S)N[C@@H](C(C)C)CO1 (some centres undefined) | 68.6 | 68.2 |  |  |
| CC(C)=CCCC(C)CCOP1(=S)N[C@@H](C(C)C)CO1 (some centres undefined) | 42.6 | 87.3 |  |  |
| Cc1ccc(OP2(=S)N[C@@H](C(C)C)CO2)c(C(C)C)c1 (some centres undefined) | 0 | 24.3 |  |  |
| Cc1ccc(C(C)C)c(OP2(=S)N[C@@H](C(C)C)CO2)c1 (some centres undefined) | 18.7 | 29.8 |  |  |
| C=CCc1ccc(OP2(=S)N[C@@H](C(C)C)CO2)c(OC)c1 (some centres undefined) | 37.5 | 53.9 |  |  |
| CC(C)=CCC/C(C)=C/COP1(=S)N[C@@H](CC(C)C)CO1 (some centres undefined) | 26.7 | 35.4 | 97.9 | 100 |
| CC(C)=CCCC(C)CCOP1(=S)N[C@@H](CC(C)C)CO1 (some centres undefined) | 26.7 | 24.7 | 82.9 | 53.9 |
| Cc1ccc(OP2(=S)N[C@@H](CC(C)C)CO2)c(C(C)C)c1 (some centres undefined) | 14.6 | 11.7 | 64.3 | 58.2 |
| Cc1ccc(C(C)C)c(OP2(=S)N[C@@H](CC(C)C)CO2)c1 (some centres undefined) | 36.8 | 19.8 | 77.1 | 36.1 |
| CC[C@H](C)[C@H]1COP(=S)(OC/C=C(\C)CCC=C(C)C)N1 (some centres undefined) | 0 | 0 |  |  |
| CC[C@H](C)[C@H]1COP(=S)(OCCC(C)CCC=C(C)C)N1 (some centres undefined) | 0 | 0 |  |  |
| CC[C@H](C)[C@H]1COP(=S)(Oc2ccc(C)cc2C(C)C)N1 (some centres undefined) | 0 | 12.5 |  |  |

| Structure (SMILES) | inhibition of growth at 100 ppm (Corticium [1]) [%] | inhibition of growth at 100 ppm (Pythium [2]) [%] | inhibition of growth at 1000 ppm (Corticium [3]) [%] | inhibition of growth at 1000 ppm (Pythium [4]) [%] |
| --- | --- | --- | --- | --- |
| CC[C@H](C)[C@H]1COP(=S)(Oc2cc(C)ccc2C(C)C)N1 (some centres undefined) | 0 | 3.7 |  |  |
| C=CCc1ccc(OP2(=S)N[C@@H]([C@@H](C)CC)CO2)c(OC)c1 (some centres undefined) | 25.3 | 41.7 |  |  |
| CC1=CCC2CC1C2(C)C (stereo not drawn) [ALPHA-PINENE] | 0.8 | 4 | 46.3 | 0 |
| CC1=CC[C@@H](C(C)(C)O)CC1 [ALPHA-TERPINEOL] | 71.8 | 11.2 | 100 | 100 |
| CC(=O)CCc1ccccc1 [BENZYLACETONE] | 30.5 | 24.5 | 100 | 100 |
| C=C1CCC2CC1C2(C)C (stereo not drawn) [BETA-PINENE] | 1.2 | 0 | 16.3 | 2.2 |
| CC1(C)C2CCC1(C)C(O)C2 (centres undefined) [BORNEOL] | 27.7 | 21.1 | 100 | 100 |
| CC12CCC(CC1=O)C2(C)C (centres undefined) [CAMPHOR] | 0.4 | 0 | 22.1 | 9.3 |
| CC(C)=CCCC(C)CCO (centres undefined) [CITRONELLOL] | 23.9 | 68.9 | 100 | 100 |
| CC(C)c1ccc(C=O)cc1 [CUMINALDEHYDE] | 22 | 14 | 100 | 100 |
| COC(=O)/C=C/c1ccccc1 [E-METHYL CINNAMATE] | 54 | 66 | 100 | 100 |
| CC12CCC(CC1)C(C)(C)O2 [EUCALYPTOL] | 8.3 | 0 | 0 | 0.4 |
| C=CCc1ccc(O)c(OC)c1 [EUGENOL] | 67.6 | 92.7 | 100 | 100 |
| CC(C)=CCC/C(C)=C/CO [GERANIOL] | 71.8 | 63.3 | 100 | 100 |
| Cc1ccc(O)c(C(C)C)c1 [ISOTHYMOL] | 72.4 | 94.3 | 100 | 100 |
| C=CC(C)(O)CCC=C(C)C (centres undefined) [LINALOOL] | 46.9 | 21.3 | 93.9 | 67.4 |
| CC1(C)C2CC=C(CO)C1C2 (centres undefined) [MYRTENOL] | 56 | 41 | 100 | 100 |
| Cc1ccc(C(C)C)cc1 [P-CYMENE] | 14.4 | 0 | 13.6 | 0.2 |
| CC1=CCC(O)(C(C)C)CC1 (centres undefined) [TERPINEOL] | 0 | 7.1 | 98.3 | 98.3 |
| Cc1ccc(C(C)C)c(O)c1 [THYMOL] | 71 | 93 | 100 | 100 |

Source: ChEMBL document CHEMBL3045387, “Synthesis and Fungicidal Activity of New 1, 3, 2-Oxazaphospholidine 2-Sulfides” (1994)
